# Results as given in US20260217701A1, “SELECTIVE BET INHIBITORS AND USES THEREOF” (Tay Therapeutics Limited, priority 2022, published 2026).
# Where “and” joins values, the source holds several entries; their conditions need not be identical. Equal values may be shown once.
# What was measured:
# [1] = CIA study: clinical observations; assay type: in vivo, Lewis rats; conditions: CIA rats
# [2] = CIA study: animal body weight; conditions: for Average animal body weight / Average animal body weight percent change: CIA; for Animal body weight percent change (%): individual animals
smiles,measurement,setting,value
"Cn1cc(-c2ccccc2)c(-c2cn(C)c(=O)c3[nH]c(-c4cnn(C(F)(F)F)c4)cc23)cc1=O [Compound A, 6-methyl-4-(1-methyl-2-oxo-5-phenyl-1,2-dihydropyridin-4-yl)-2-(1-(trifluoromethyl)-1H-pyrazol-4-yl)-1,6-dihydro-7H-pyrrolo[2,3-c]pyridin-7-one]",Clinical observations,"[1]; 1 mg/kg, Day 16",Diarrhea
same,Clinical observations,"[1]; 3 mg/kg, Day 13",Diarrhea
same,Clinical observations,"[1]; 3 mg/kg, Day 14",Diarrhea
same,Clinical observations,"[1]; 3 mg/kg, Day 15",Diarrhea
same,Clinical observations,"[1]; 3 mg/kg, Day 16",Diarrhea
same,Clinical observations,"[1]; 3 mg/kg, Day 21",Diar-
same,Clinical observations,"[1]; 10 mg/kg, Day 12",Diarrhea
same,Clinical observations,"[1]; 10 mg/kg, Day 13",Diarrhea
same,Clinical observations,"[1]; 10 mg/kg, Day 14",Diarrhea
same,Clinical observations,"[1]; 10 mg/kg, Day 15",Diarrhea
same,Clinical observations,"[1]; 10 mg/kg, Day 16",Diarrhea
same,Clinical observations,"[1]; 10 mg/kg, Day 17",Diarrhea
same,Clinical observations,"[1]; 10 mg/kg, Day 18",Diarrhea
same,Animal body weight,"[2]; CIA + Compound A 1 mg/kg, Day 8, 1 mg/kg",172 g and 157 g and 170 g and 161 g and 171 g and 165 g
same,Animal body weight,"[2]; CIA + Compound A 1 mg/kg, Day 9, 1 mg/kg",180 g and 156 g and 175 g and 162 g and 173 g and 170 g and 169 g
same,Animal body weight,"[2]; CIA + Compound A 1 mg/kg, Day 10, 1 mg/kg",178 g and 155 g and 166 g and 170 g and 176 g
same,Animal body weight,"[2]; CIA + Compound A 1 mg/kg, Day 11, 1 mg/kg",180 g and 157 g and 178 g and 162 g and 170 g and 175 g and 167 g
same,Animal body weight,"[2]; CIA + Compound A 1 mg/kg, Day 12, 1 mg/kg",182 g and 158 g and 176 g and 162 g and 174 g and 177 g and 165 g
same,Animal body weight,"[2]; CIA + Compound A 1 mg/kg, Day 13, 1 mg/kg",180 g and 158 g and 179 g and 160 g and 174 g and 172 g and 165 g
same,Animal body weight,"[2]; CIA + Compound A 1 mg/kg, Day 14, 1 mg/kg",178 g and 159 g and 179 g and 155 g and 175 g and 170 g and 168 g
same,Animal body weight,"[2]; CIA + Compound A 3 mg/kg, Day 8, 3 mg/kg",160 g and 174 g and 173 g and 169 g and 163 g and 165 g and 167 g and 157 g
same,Animal body weight,"[2]; CIA + Compound A 3 mg/kg, Day 9, 3 mg/kg",162 g and 171 g and 178 g and 169 g and 160 g and 163 g and 170 g
same,Animal body weight,"[2]; CIA + Compound A 3 mg/kg, Day 10, 3 mg/kg",162 g and 172 g and 177 g and 170 g and 168 g and 167 g
same,Animal body weight,"[2]; CIA + Compound A 3 mg/kg, Day 11, 3 mg/kg",160 g and 172 g and 178 g and 169 g and 165 g
same,Animal body weight,"[2]; CIA + Compound A 3 mg/kg, Day 12, 3 mg/kg",158 g and 176 g and 170 g and 167 g and 169 g and 172 g and 165 g
same,Animal body weight,"[2]; CIA + Compound A 3 mg/kg, Day 13, 3 mg/kg",162 g and 175 g and 166 g and 173 g and 157 g and 168 g and 171 g
same,Animal body weight,"[2]; CIA + Compound A 3 mg/kg, Day 14, 3 mg/kg",163 g and 177 g and 170 g and 175 g and 156 g and 167 g and 158 g
same,Animal body weight,"[2]; CIA + Compound A 10 mg/kg, Day 8, 10 mg/kg",162 g
same,Animal body weight,"[2]; CIA + Compound A 10 mg/kg, Day 9, 10 mg/kg",164 g
same,Animal body weight,"[2]; CIA + Compound A 10 mg/kg, Day 10, 10 mg/kg",165 g
same,Animal body weight,"[2]; CIA + Compound A 10 mg/kg, Day 11, 10 mg/kg",164 g
same,Animal body weight,"[2]; CIA + Compound A 10 mg/kg, Day 12, 10 mg/kg",163 g
same,Animal body weight,"[2]; CIA + Compound A 10 mg/kg, Day 13, 10 mg/kg",163 g
same,Animal body weight,"[2]; CIA + Compound A 10 mg/kg, Day 14, 10 mg/kg",164 g
same,Average animal body weight,"[2]; Day 0, 1 mg/kg",163
same,Average animal body weight percent change,"[2]; Day 0, 1 mg/kg",0.00%
same,Average animal body weight,"[2]; Day 0, 3 mg/kg",166
same,Average animal body weight percent change,"[2]; Day 0, 3 mg/kg",0.00%
same,Average animal body weight,"[2]; Day 0, 10 mg/kg",162
same,Average animal body weight percent change,"[2]; Day 0, 10 mg/kg",0.00%
same,Average animal body weight,"[2]; Day 1, 1 mg/kg",166
same,Average animal body weight percent change,"[2]; Day 1, 1 mg/kg",1.55%
same,Average animal body weight,"[2]; Day 1, 3 mg/kg",165
same,Average animal body weight percent change,"[2]; Day 1, 3 mg/kg",−0.19%
same,Average animal body weight,"[2]; Day 1, 10 mg/kg",164
same,Average animal body weight percent change,"[2]; Day 1, 10 mg/kg",1.12%
same,Average animal body weight,"[2]; Day 2, 1 mg/kg",163
same,Average animal body weight percent change,"[2]; Day 2, 1 mg/kg",−0.07%
same,Average animal body weight,"[2]; Day 2, 3 mg/kg",165
same,Average animal body weight percent change,"[2]; Day 2, 3 mg/kg",−0.57%
same,Average animal body weight,"[2]; Day 2, 10 mg/kg",163
same,Average animal body weight percent change,"[2]; Day 2, 10 mg/kg",0.71%
same,Average animal body weight,"[2]; Day 3, 1 mg/kg",165
same,Average animal body weight percent change,"[2]; Day 3, 1 mg/kg",0.96%
same,Average animal body weight,"[2]; Day 3, 3 mg/kg",163
same,Average animal body weight percent change,"[2]; Day 3, 3 mg/kg",−1.45%
same,Average animal body weight,"[2]; Day 3, 10 mg/kg",163
same,Average animal body weight percent change,"[2]; Day 3, 10 mg/kg",0.63%
same,Average animal body weight,"[2]; Day 4, 1 mg/kg",165
same,Average animal body weight percent change,"[2]; Day 4, 1 mg/kg",1.26%
same,Average animal body weight,"[2]; Day 4, 3 mg/kg",165
same,Average animal body weight percent change,"[2]; Day 4, 3 mg/kg",−0.35%
same,Average animal body weight,"[2]; Day 4, 10 mg/kg",163
same,Average animal body weight percent change,"[2]; Day 4, 10 mg/kg",0.72%
same,Average animal body weight,"[2]; Day 5, 1 mg/kg",169
same,Average animal body weight percent change,"[2]; Day 5, 1 mg/kg",3.76%
same,Average animal body weight,"[2]; Day 5, 3 mg/kg",167
same,Average animal body weight percent change,"[2]; Day 5, 3 mg/kg",0.70%
same,Average animal body weight,"[2]; Day 5, 10 mg/kg",166
same,Average animal body weight percent change,"[2]; Day 5, 10 mg/kg",2.60%
same,Average animal body weight,"[2]; Day 6, 1 mg/kg",170
same,Average animal body weight percent change,"[2]; Day 6, 1 mg/kg",4.33%
same,Average animal body weight,"[2]; Day 6, 3 mg/kg",166
same,Average animal body weight percent change,"[2]; Day 6, 3 mg/kg",0.43%
same,Average animal body weight,"[2]; Day 6, 10 mg/kg",166
same,Average animal body weight percent change,"[2]; Day 6, 10 mg/kg",2.04%
same,Average animal body weight,"[2]; Day 7, 1 mg/kg",170
same,Average animal body weight percent change,"[2]; Day 7, 1 mg/kg",3.94%
same,Average animal body weight,"[2]; Day 7, 3 mg/kg",164
same,Average animal body weight percent change,"[2]; Day 7, 3 mg/kg",−0.93%
same,Average animal body weight,"[2]; Day 7, 10 mg/kg",164
same,Average animal body weight percent change,"[2]; Day 7, 10 mg/kg",0.89%
same,Average animal body weight,"[2]; Day 8, 1 mg/kg",167
same,Average animal body weight percent change,"[2]; Day 8, 1 mg/kg",2.26%
same,Average animal body weight,"[2]; Day 8, 3 mg/kg",166
same,Average animal body weight percent change,"[2]; Day 8, 3 mg/kg",0.36%
same,Average animal body weight,"[2]; Day 8, 10 mg/kg",162
same,Average animal body weight percent change,"[2]; Day 8, 10 mg/kg",−0.31%
same,Animal body weight percent change (%),"[2]; Day 8, Group 5 (CIA + Compound A 1 mg/kg), 1 mg/kg",4.24% and −4.27% and 4.94% and 5.92% and 1.78% and 2.40% and 1.23%
same,Animal body weight percent change (%),"[2]; Day 8, Group 6 (CIA + Compound A 3 mg/kg), 3 mg/kg",−4.76% and 1.75% and −1.14% and 1.20% and −2.40% and 1.23% and 6.37% and 0.64%
